According to paper PMC7286362 (Journal of medicinal chemistry, 2020):
Like-named read-outs stand apart in the source and are kept apart here.

What was measured:
[1] = test system: type I PRMTs; assay: Methyltransferase selectivity assay, type I PRMTs; assay type: biochemical
[2] = test system: PKMTs, DNMTs, and type II, III PRMTs; assay: Methyltransferase selectivity assay, PKMTs, DNMTs and type II, III PRMTs; assay type: biochemical; settings: at 10 μM
[3] = target: DNMT3A/3L (Homo sapiens, UniProt Q9Y6K1); assay: Methyltransferase selectivity assay, DNMT3A/3L; assay type: biochemical; settings: read-out: inhibition of DNMT3A/3L
Chain of DNMT3A/3L (Q9Y6K1 whole entry, looked up, species assumed): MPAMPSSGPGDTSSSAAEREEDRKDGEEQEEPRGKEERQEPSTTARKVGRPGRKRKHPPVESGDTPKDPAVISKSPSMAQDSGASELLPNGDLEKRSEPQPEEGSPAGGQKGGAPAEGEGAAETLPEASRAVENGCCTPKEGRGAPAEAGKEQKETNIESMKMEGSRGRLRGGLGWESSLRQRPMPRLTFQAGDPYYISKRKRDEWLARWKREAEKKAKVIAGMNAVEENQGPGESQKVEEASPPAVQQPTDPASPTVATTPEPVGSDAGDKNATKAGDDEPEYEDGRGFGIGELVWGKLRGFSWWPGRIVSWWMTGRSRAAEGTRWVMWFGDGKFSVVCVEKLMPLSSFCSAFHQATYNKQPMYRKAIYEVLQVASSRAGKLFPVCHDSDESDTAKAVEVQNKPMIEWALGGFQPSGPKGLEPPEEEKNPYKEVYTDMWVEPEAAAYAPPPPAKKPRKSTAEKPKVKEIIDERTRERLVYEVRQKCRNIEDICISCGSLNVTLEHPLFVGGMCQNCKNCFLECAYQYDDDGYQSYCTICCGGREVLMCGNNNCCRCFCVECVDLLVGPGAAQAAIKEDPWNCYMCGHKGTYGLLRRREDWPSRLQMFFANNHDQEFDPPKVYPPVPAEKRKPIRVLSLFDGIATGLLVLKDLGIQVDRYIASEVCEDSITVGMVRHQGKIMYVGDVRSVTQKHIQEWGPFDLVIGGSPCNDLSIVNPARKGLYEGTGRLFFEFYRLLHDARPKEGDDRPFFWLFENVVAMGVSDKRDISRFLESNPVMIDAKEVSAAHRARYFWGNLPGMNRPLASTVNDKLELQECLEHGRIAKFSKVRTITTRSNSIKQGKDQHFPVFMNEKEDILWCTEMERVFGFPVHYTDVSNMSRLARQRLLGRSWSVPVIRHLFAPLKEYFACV
Chain of DNMT3A/3L (Q9UJW3 whole entry partner, species assumed): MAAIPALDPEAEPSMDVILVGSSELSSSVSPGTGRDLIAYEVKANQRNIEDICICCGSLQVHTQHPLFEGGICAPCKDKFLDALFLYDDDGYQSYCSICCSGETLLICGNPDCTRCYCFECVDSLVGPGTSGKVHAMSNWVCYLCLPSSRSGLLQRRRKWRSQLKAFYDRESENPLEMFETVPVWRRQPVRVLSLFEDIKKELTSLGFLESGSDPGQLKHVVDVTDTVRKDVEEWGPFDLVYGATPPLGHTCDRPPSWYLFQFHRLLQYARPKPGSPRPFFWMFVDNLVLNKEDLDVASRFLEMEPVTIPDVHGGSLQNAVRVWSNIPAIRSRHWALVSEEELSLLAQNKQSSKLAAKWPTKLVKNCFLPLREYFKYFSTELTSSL

[4] = target: T1, PRMT3 (Homo sapiens, UniProt O60678); assay: Mass spectrometry analysis of covalent binding, PRMT3; settings: 15 μM protein, 300 μM compound, 1 h at rt
T1 sequence (O60678 whole entry, species assumed): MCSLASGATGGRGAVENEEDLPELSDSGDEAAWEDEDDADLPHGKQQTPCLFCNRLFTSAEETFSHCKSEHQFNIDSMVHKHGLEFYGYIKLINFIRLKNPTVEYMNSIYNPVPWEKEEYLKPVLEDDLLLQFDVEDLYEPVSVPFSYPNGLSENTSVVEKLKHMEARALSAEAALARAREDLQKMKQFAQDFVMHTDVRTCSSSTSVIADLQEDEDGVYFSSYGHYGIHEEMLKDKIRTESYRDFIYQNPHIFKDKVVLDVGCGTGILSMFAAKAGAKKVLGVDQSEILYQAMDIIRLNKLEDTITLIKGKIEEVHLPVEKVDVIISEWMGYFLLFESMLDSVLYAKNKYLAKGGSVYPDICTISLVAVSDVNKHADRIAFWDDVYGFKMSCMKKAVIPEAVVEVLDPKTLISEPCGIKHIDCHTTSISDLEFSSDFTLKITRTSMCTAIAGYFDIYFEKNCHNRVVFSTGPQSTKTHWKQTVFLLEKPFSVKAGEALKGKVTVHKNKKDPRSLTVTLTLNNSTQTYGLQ

[5] = test system: MCF-7 cells; assay: Cell viability assay; assay type: cell-based; settings: up to 20 μM, 3 days, CCK-8
[6] = target: T2, endogenously expressed PRMT4 (Homo sapiens, UniProt Q86X55); assay: Cellular PRMT4 assay: BAF155-Rme2a levels in MCF7 cells; assay type: cell-based; settings: 2 days, concentrations up to 20 μM
T2 sequence (Q86X55 1-608): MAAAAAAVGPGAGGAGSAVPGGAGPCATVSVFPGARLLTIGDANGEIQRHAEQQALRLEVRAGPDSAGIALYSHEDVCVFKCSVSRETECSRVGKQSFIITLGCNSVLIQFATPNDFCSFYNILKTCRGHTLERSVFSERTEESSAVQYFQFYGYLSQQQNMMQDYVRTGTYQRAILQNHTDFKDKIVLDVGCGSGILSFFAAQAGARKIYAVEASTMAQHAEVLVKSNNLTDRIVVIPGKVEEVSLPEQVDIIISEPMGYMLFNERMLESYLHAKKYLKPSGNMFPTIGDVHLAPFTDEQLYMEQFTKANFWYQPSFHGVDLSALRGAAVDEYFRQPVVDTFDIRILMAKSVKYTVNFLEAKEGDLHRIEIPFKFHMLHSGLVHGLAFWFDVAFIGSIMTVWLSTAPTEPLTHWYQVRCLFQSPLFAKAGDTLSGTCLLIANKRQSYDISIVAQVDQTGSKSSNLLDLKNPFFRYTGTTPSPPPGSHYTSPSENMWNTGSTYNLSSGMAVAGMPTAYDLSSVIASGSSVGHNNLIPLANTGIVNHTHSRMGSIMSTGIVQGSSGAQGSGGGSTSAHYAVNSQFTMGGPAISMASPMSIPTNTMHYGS

[7] = target: T3, PRMT6 (Homo sapiens, UniProt Q96LA8); assay type: cell-based; settings: for inhibition of H3R2me2a in cells: PRMT6-transfected HEK293T cells, 20 h
T3 sequence (Q96LA8 whole entry): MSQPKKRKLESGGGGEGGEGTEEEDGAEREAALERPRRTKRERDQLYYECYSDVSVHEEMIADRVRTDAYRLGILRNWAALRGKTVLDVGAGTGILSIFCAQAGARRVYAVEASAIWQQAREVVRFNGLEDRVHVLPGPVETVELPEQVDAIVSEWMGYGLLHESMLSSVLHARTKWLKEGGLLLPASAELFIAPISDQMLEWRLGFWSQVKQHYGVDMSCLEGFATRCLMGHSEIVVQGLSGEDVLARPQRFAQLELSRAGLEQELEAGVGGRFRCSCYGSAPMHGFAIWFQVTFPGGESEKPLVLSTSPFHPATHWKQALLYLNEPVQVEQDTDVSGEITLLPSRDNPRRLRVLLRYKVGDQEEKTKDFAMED

[8] = target: T3, PRMT6; assay: Mass spectrometry analysis of covalent binding, PRMT6; settings: 15 μM protein, 300 μM compound, 1 h at rt
[9] = target: T3, PRMT6; assay: KI and kinact determination from time-dependent IC50 values; assay type: biochemical; settings: for time dependence of IC50 against PRMT6: preincubation 1 to 30 min, SPA
[10] = target: PRMT8 (Homo sapiens, UniProt Q9NR22); assay: Mass spectrometry analysis of covalent binding, PRMT8; settings: 15 μM protein, 300 μM compound, 1 h at rt
Chain of PRMT8 (Q9NR22 whole entry, species assumed): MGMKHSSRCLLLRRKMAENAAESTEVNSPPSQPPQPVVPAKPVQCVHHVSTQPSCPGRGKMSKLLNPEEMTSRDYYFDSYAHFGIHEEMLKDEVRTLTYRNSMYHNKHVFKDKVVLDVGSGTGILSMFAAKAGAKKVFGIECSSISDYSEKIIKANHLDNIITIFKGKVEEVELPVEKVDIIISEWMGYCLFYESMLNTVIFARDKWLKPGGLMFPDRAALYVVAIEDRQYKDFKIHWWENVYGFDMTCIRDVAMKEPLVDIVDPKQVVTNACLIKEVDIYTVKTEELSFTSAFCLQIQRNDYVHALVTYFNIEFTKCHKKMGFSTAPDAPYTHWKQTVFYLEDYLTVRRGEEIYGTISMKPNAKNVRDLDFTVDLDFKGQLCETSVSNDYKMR

[11] = target: T1, PRMT3; assay type: cell-based; settings: HEK293T cells, 20 h, concentrations up to 20 μM
[12] = test system: HEK293T cells; assay: Cell viability assay; assay type: cell-based; settings: up to 20 μM, 3 days, CCK-8
[13] = test system: PNT2 (a nontumorigenic prostate cell line); assay: Cell viability assay; assay type: cell-based; settings: up to 20 μM, 3 days, CCK-8
[14] = target: T4, PRMT4 (Homo sapiens, UniProt Q86X55); assay: Mass spectrometry analysis of covalent binding, PRMT4; settings: 15 μM protein, 300 μM compound, 1 h at rt
T4 sequence (Q86X55 1-608): T2 sequence (Q86X55 1-608)

[15] = target: PRMT1 (Homo sapiens, UniProt Q99873); assay: Mass spectrometry analysis of covalent binding, PRMT1; settings: 15 μM protein, 300 μM compound, 1 h at rt
Chain of PRMT1 (Q99873 whole entry, species assumed): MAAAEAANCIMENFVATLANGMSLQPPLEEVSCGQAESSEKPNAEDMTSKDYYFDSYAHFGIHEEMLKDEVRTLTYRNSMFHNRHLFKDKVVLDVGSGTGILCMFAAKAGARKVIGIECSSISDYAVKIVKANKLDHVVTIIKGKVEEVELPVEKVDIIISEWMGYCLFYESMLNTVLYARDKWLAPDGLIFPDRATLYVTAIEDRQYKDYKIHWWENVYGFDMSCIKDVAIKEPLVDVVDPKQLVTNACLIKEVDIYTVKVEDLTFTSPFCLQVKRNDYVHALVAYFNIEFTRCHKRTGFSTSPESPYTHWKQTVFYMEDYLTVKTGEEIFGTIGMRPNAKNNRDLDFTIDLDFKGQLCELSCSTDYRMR

[16] = target: T3, PRMT6; assay: Scintillation proximity assay; assay type: biochemical; settings: SPA, 1 h preincubation

SMILES	inhibition of type I PRMTs ([1]; at 10 μM)	inhibition of type I PRMTs ([1]; at 50 μM)	cytotoxicity in MCF-7 cells [5]	reduction of BAF155-Rme2a levels in cells [6]	covalent modification of PRMT6 (MS adduct) [8]	time dependence of IC50 against PRMT6 [9]	reduction of PRMT3-dependent H4R3me2a in cells [11]	cytotoxicity in HEK293T cells [12]	cytotoxicity in PNT2 cells [13]	inhibition of H3R2me2a in cells ([7]; concentrations up to 10 μM)	further results
C=CC(=O)Nc1cccc(-c2c[nH]cc2CN(C)CCN)c1 [Compound 4, N-(3-(4-(((2-Aminoethyl)(methyl)amino)methyl)-1H-pyrrol-3-yl)-phenyl)acrylamide]	> 90%	> 50%	not cytotoxic	did not reduce	adduct with mass equal to PRMT6 plus compound 4, with no detectable unmodified PRMT6	time-dependent potencies	did not significantly reduce this mark	not cytotoxic	not cytotoxic		inhibition of PKMTs, DNMTs, and type II, III PRMTs [2]: did not significantly inhibit; inhibition at 50 µM [3]: > 50%; covalent modification of PRMT3 (MS adduct) [4]: no adducts with other type I PRMTs could be detected; selectivity for PRMT6 over PRMT1 in cells ([7]; from cellular assays): ~ 4 fold; selectivity for PRMT6 over PRMT4 in cells ([7]; from cellular assays): > 20 fold; kinact/KI [9]: 83000 M⁻¹ s⁻¹; covalent modification of PRMT8 (MS adduct) [10]: no adducts with other type I PRMTs could be detected; covalent modification of PRMT4 (MS adduct) [14]: no adducts with other type I PRMTs could be detected; covalent modification of PRMT1 (MS adduct) [15]: no adducts with other type I PRMTs could be detected
CCC(=O)Nc1cccc(-c2c[nH]cc2CN(C)CCN)c1 [Compound 5, N-(3-(4-(((2-Aminoethyl)(methyl)amino)methyl)-1H-pyrrol-3-yl)-phenyl)propionamide]	> 40%	> 80%	not cytotoxic	did not reduce	neither compound 5 nor compound 7 could modify PRMT6 in a detected level	no significant change in IC50 values	did not significantly reduce this mark	not cytotoxic	not cytotoxic	inhibited H3R2me2a, but was less effective than compound 4	pIC50 against PRMT6 [16]: 7.6 ± 0.1
C=CC(=O)Nc1cccc(-c2c[nH]cc2CN(C)CCO)c1 [Compound 7, N-(3-(4-(((2-Hydroxyethyl)(methyl)amino)methyl)-1H-pyrrol-3-yl)phenyl)acrylamide]			not cytotoxic	did not reduce	neither compound 5 nor compound 7 could modify PRMT6 in a detected level		did not significantly reduce this mark	not cytotoxic	not cytotoxic	did not significantly inhibit H3R2me2a	
CC(C)Oc1ccc(-c2c[nH]cc2CN(C)CCN)cc1 [MS023, reference compound]											inhibition of H3R2me2a in cells ([7]; at 2 μM (positive control)): effectively inhibited H3R2me2a
